Experimental data taken from patent US20130252916A1, “ORAMUCOSAL PHARMACEUTICAL DOSAGE FORM” (UNIVERSITY OF THE WITWATERSRAND, JOHANNESBURG, priority 2005, published 2013).

Legend:
[1] = Windholz et al., 1976; cited from earlier work
[2] = solubility and dissolution of diluents in water; type: physicochemical; settings: lactose compared with mannitol

Structure (SMILES): OC[C@@H](O)[C@@H](O)[C@H](O)[C@H](O)CO [mannitol]
- solubility (amount of cold water needed to dissolve) [1]: 5.5 mL

Structure (SMILES): OC[C@H]1O[C@@H](O[C@H]2[C@H](O)[C@@H](O)C(O)O[C@@H]2CO)[C@H](O)[C@@H](O)[C@H]1O (some centres unmarked) [lactose]
- rate of dissolution [2]: slower rate than mannitol
